In patent US20050060772A1, “Regulation of ethylene sensitivity during leaf and flower abscission” (priority 2001, published 2005):
Entries after “also recorded” stand apart in the source; their conditions may differ.

Legend:
TCTR1 antisense plants = test: Inducible leaf abscission in TCTR1 antisense tomato plants; conditions: for rate of leaf abscission compared with EIN3 over-expressing plants: CTR1/TCTR1 antisense plants; for induction of leaf abscission: TCTR1 antisense under the three inducible promoters
wild-type tomato flowers = conditions: wild-type flowers treated with ethylene (FIG. 1: 10 ppm, 16 hrs)
Experimental: (§1) Flower clusters were cut from the plant, placed in a vial of water, and treated with 10 ppm ethylene for 16 hrs.
(§2) Preliminary work was conducted in tomato to test the efficacy of these approaches.

[1] = tested on: transgenic tomato flowers (EIN2 over-expression / co-suppression); conditions: transgenic flowers treated with ethylene (FIG. 1: 10 ppm, 16 hrs)
Experimental: as §1, §2

Compound	rate of leaf abscission compared with EIN3 over-expressing plants (TCTR1 antisense plants)	induction of leaf abscission (TCTR1 antisense plants)	time to flower abscission after treatment (wild-type tomato flowers) [h]	time flowers remained attached to the pedicel after treatment [1]
CCO [ethanol]	less rapid; also recorded: not as rapid	induced leaf abscission	–	–
C=C [ethylene]	–	–	24	at least 5 days
CC(C)CC[C@@H](O)[C@](C)(O)[C@H]1CC[C@@]2(O)C3=CC(=O)[C@]4(O)C[C@@H](O)[C@@H](O)C[C@]4(C)[C@H]3[C@H](O)C[C@]12C [muristeroneA]	less rapid; also recorded: not as rapid	induced leaf abscission	–	–
